How the values were obtained:
[1] = biological target: isolated recombinant JAK1 kinase domain (Homo sapiens (Human), UniProt P23458); assay: JAK1 enzyme assay (Caliper LabChip, Ki); assay type: biochemical; conditions: isolated recombinant JAK1 kinase domain, 1.5 nM enzyme, ATP 25 μM
[2] = biological target: isolated recombinant JAK2 kinase domain (Homo sapiens (Human), UniProt O60674); assay: JAK2 enzyme assay (Caliper LabChip, Ki); assay type: biochemical; conditions: isolated recombinant JAK2 kinase domain, 0.2 nM enzyme, ATP 25 μM
isolated recombinant JAK2 kinase domain, sequence (O60674 849-1124): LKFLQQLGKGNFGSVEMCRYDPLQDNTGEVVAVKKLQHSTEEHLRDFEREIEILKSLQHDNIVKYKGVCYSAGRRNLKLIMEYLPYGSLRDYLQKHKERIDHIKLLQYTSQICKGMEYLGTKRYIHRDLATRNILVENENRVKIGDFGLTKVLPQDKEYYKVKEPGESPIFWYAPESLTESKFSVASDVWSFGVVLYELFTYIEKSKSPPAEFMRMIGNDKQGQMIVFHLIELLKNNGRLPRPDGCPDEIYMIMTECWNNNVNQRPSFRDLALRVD

isolated recombinant JAK1 kinase domain, sequence (P23458 875-1153): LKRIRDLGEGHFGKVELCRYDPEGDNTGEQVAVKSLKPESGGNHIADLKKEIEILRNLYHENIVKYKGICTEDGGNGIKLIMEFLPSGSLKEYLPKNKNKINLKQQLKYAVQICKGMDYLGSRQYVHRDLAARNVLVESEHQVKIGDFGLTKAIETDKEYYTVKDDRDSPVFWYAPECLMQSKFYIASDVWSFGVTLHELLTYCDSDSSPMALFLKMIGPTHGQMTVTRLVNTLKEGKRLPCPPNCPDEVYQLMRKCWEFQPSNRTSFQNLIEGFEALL

Structure (SMILES)	Ki [1]	Ki [2]
CN1CCN(C(=O)Cn2cc(Nc3nc4c(N5CC6CCC(C5)N6C(=O)N5CC(F)(F)C5)cccn4n3)cn2)CC1 [Example 173, 2-[4-[[8-[8-(3,3-difluoroazetidine-1-carbonyl)-3,8-diazabicyclo[3.2.1]octan-3-yl]-[1,2,4]triazolo[1,5-a]pyridin-2-yl]amino]pyrazol-1-yl]-1-(4-methylpiperazin-1-yl)ethanone]	500 pM	500 pM
CN1CCN(C(=O)Cn2cc(Nc3nc4c(N5CC6CCC(C5)N6C(=O)c5cccc(CC#N)c5)cccn4n3)cn2)CC1 [Example 69, 2-[3-[3-[2-[[1-[2-(4-methylpiperazin-1-yl)-2-oxo-ethyl]pyrazol-4-yl]amino]-[1,2,4]triazolo[1,5-a]pyridin-8-yl]-3,8-diazabicyclo[3.2.1]octane-8-carbonyl]phenyl] acetonitrile]	2300 pM	9300 pM
CN1CCN(C(=O)Cn2cc(Nc3nc4c(N5CC6CCC(C5)N6Cc5ccccc5C#N)cccn4n3)cn2)CC1 [Example 63, 2-[[3-[2-[[1-[2-(4-methylpiperazin-1-yl)-2-oxo-ethyl]pyrazol-4-yl]amino]-[1,2,4]triazolo[1,5-a]pyridin-8-yl]-3,8-diazabicyclo[3.2.1]octan-8-yl]methyl]benzonitrile]	1800 pM	2400 pM
CN1CCN(C(=O)Cn2cc(Nc3nc4c(N5CC6CCCC(C5)N6C(=O)[C@H]5C[C@H](C(F)(F)F)C5)cccn4n3)cn2)CC1 [Example 40, 1-(4-methylpiperazin-1-yl)-2-[4-[[8-[9-[3-(trifluoromethyl)cyclobutanecarbonyl]-3,9-diazabicyclo[3.3.1]nonan-3-yl]-[1,2,4]triazolo[1,5-a]pyridin-2-yl]amino]pyrazol-1-yl]ethanone]	600 pM	600 pM
CN1CCN(C(=O)Cn2cc(Nc3nc4c(N5CC6CCC(C5)N6S(=O)(=O)Cc5cccc(F)c5)cccn4n3)cn2)CC1 [Example 159, 2-[4-[[8-[8-[(3-fluorophenyl)methylsulfonyl]-3,8-diazabicyclo[3.2.1]octan-3-yl]-[1,2,4]triazolo[1,5-a]pyridin-2-yl]amino]pyrazol-1-yl]-1-(4-methylpiperazin-1-yl)ethanone]	700 pM	2900 pM
CSCCN1CCN(C(=O)Cn2cc(Nc3nc4c(N5CC6CCC(C5)N6C(=O)C5CC(C(F)(F)F)C5)cccn4n3)cn2)CC1 (stereo not shown) [Example 198, 1-[4-(2-methylsulfanylethyl)-piperazin-1-yl]-2-[4-[[8-[8-[3-(trifluoromethyl)-cyclobutanecarbonyl]-3,8-diazabicyclo[3.2.1]octan-3-yl]-[1,2,4]triazolo[1,5-a]pyridin-2-yl]amino]pyrazol-1-yl]ethanone]	800 pM	2100 pM
CN1CCN(C(=O)Cn2cc(Nc3nc4c(N5CC6CCC(C5)N6S(=O)(=O)c5ccc(Cl)cc5)cccn4n3)cn2)CC1 [Example 93, 2-[4-[[8-[8-(4-chlorophenyl)sulfonyl-3,8-diazabicyclo[3.2.1]octan-3-yl]-[1,2,4]triazolo[1,5-a]pyridin-2-yl]amino]pyrazol-1-yl]-1-(4-methylpiperazin-1-yl)ethanone]	300 pM	800 pM
CN1CCN(C(=O)Cn2cc(Nc3nc4c(N5CC6CCC(C5)N6S(=O)(=O)Cc5ccccc5F)cccn4n3)cn2)CC1 [Example 158, 2-[4-[[8-[8-[(2-fluorophenyl)methylsulfonyl]-3,8-diazabicyclo[3.2.1]octan-3-yl]-[1,2,4]triazolo[1,5-a]pyridin-2-yl]amino]pyrazol-1-yl]-1-(4-methylpiperazin-1-yl)ethanone]	900 pM	2800 pM
O=C(Cn1cc(Nc2nc3c(N4CC5CCC(C4)N5C(=O)CCC(F)(F)F)cccn3n2)cn1)N1CCC(N2CCOCC2)CC1 [Example 74, 4,4,4-trifluoro-1-[3-[2-[[1-[2-(4-morpholino-1-piperidyl)-2-oxo-ethyl]pyrazol-4-yl]amino]-[1,2,4]triazolo[1,5-a]pyridin-8-yl]-3,8-diazabicyclo[3.2.1]octan-8-yl]butan-1-one]	1000 pM	2700 pM
CC(C(=O)N1CCN(C)CC1)n1cc(Nc2nc3c(N4CC5CCCC(C4)N5C(=O)CCC(F)(F)F)cccn3n2)cn1 (stereo not shown) [Example 105, 4,4,4-trifluoro-1-[3-[2-[[1-[1-methyl-2-(4-methylpiperazin-1-yl)-2-oxo-ethyl]pyrazol-4-yl]amino]-[1,2,4]triazolo[1,5-a]pyridin-8-yl]-3,9-diazabicyclo[3.3.1]nonan-9-yl]butan-1-one]	1000 pM	800 pM
CN1CCN(C(=O)Cn2cc(Nc3nc4c(N5CC6CCC(C5)N6S(=O)(=O)c5ccc(C(F)(F)F)cc5)cccn4n3)cn2)CC1 [Example 135, 1-(4-methylpiperazin-1-yl)-2-[4-[[8-[8-(4-(trifluoromethyl)phenyl]sulfonyl-3,8-diazabicyclo[3.2.1]octan-3-yl]-[1,2,4]triazolo[1,5-a]pyridin-2-yl]amino]pyrazol-1-yl]ethanone]	200 pM	400 pM
CN(C)C(=O)CN1CCN(CC2CCN(C(=O)Cn3cc(Nc4nc5c(N6CC7CCC(C6)N7C(=O)N6CC(C(F)(F)F)C6)cccn5n4)cn3)CC2)CC1 [Example 81, N,N-dimethyl-2-[4-[[1-[2-[4-[[8-[8-[3-(trifluoromethyl)azetidine-1-carbonyl]-3,8-diazabicyclo[3.2.1]octan-3-yl]-[1,2,4]triazolo[1,5-a]pyridin-2-yl]amino]pyrazol-1-yl]acetyl]-4-piperidyl]methyl]piperazin-1-yl]acetamide]	1000 pM	800 pM
CSc1ccc(S(=O)(=O)N2C3CCC2CN(c2cccn4nc(Nc5cnn(CC(=O)N6CCN(C)CC6)c5)nc24)C3)cc1 [Example 107, 1-(4-methylpiperazin-1-yl)-2-[4-[[8-[8-(4-methylsulfanylphenyl)-sulfonyl-3,8-diazabicyclo[3.2.1]octan-3-yl]-[1,2,4]triazolo[1,5-a]pyridin-2-yl]amino]pyrazol-1-yl]ethanone]	400 pM	800 pM
CN1CCN(C(=O)Cn2cc(Nc3nc4c(N5CC6CCCC(C5)N6C(=O)C5CSC5)cccn4n3)cn2)CC1 [Example 96, 1-(4-methylpiperazin-1-yl)-2-[4-[[8-[9-(thietane-3-carbonyl)-3,9-diazabicyclo[3.3.1]nonan-3-yl]-[1,2,4]triazolo[1,5-a]pyridin-2-yl]amino]pyrazol-1-yl]ethanone]	400 pM	500 pM
CN1CCN(C(=O)Cn2cc(Nc3nc4c(N5CC6CCC(C5)N6S(=O)(=O)Cc5ccccc5)cccn4n3)cn2)CC1 [Example 108, 2-[4-[[8-(8-benzylsulfonyl-3,8-diazabicyclo[3.2.1]octan-3-yl)-[1,2,4]triazolo[1,5-a]pyridin-2-yl]amino]pyrazol-1-yl]-1-(4-methylpiperazin-1-yl)ethanone]	1000 pM	2700 pM
CSc1cccc(C(=O)N2C3CCC2CN(c2cccn4nc(Nc5cnn(CC(=O)N6CCN(C)CC6)c5)nc24)C3)c1 [Example 100, 1-(4-methylpiperazin-1-yl)-2-[4-[[8-[8-(3-methylsulfanylbenzoyl)-3,8-diazabicyclo[3.2.1]octan-3-yl]-[1,2,4]triazolo[1,5-a]pyridin-2-yl]amino]pyrazol-1-yl]ethanone]	1200 pM	4200 pM
CSCCN1CCN(C(=O)Cn2cc(Nc3nc4c(N5CC6CCC(C5)N6C(=O)N5CC(C(F)(F)F)C5)cccn4n3)cn2)CC1 [Example 186, 1-[4-(2-methylsulfanylethyl)piperazin-1-yl]-2-[4-[[8-[8-(3-(trifluoromethyl)azetidine-1-carbonyl]-3,8-diazabicyclo[3.2.1]octan-3-yl]-[1,2,4]triazolo[1,5-a]pyridin-2-yl]amino]pyrazol-1-yl]ethanone; formic acid]	200 pM	200 pM
CN1CCN(C(=O)Cn2cc(Nc3nc4c(N5CC6CCC(C5)N6C(=O)Cc5ccc(F)cc5)cccn4n3)cn2)CC1 [Example 66, 2-(4-fluorophenyl)-1-[3-[2-[[1-[2-(4-methylpiperazin-1-yl)-2-oxo-ethyl]pyrazol-4-yl]amino]-[1,2,4]triazolo[1,5-a]pyridin-8-yl]-3,8-diazabicyclo[3.2.1]octan-8-yl]ethanone]	700 pM	1400 pM
CN1CCN(C(=O)Cn2cc(Nc3nc4c(N5CC6CCC(C5)C6=CC#N)cccn4n3)cn2)CC1 [Example 118, 2-[3-[2-[[1-[2-(4-methylpiperazin-1-yl)-2-oxo-ethyl]pyrazol-4-yl]amino]-[1,2,4]triazolo[1,5-a]pyridin-8-yl]-3-azabicyclo[3.2.1]octan-8-ylidene]acetonitrile]	500 pM	1500 pM
CN1CCN(C(=O)Cn2cc(Nc3nc4c(N5CC6CCC(C5)N6S(=O)(=O)c5cccc(C#N)c5)cccn4n3)cn2)CC1 [Example 143, 3-[[3-[2-[[1-[2-(4-methylpiperazin-1-yl)-2-oxo-ethyl]pyraol-4-yl]amino]-[1,2,4]triazolo[1,5-a]pyridin-8-yl]-3,8-diazabicyclo[3.2.1]octan-8-yl]sulfonyl]benzonitrile]	500 pM	1100 pM
CN1CCN(C(=O)Cn2cc(Nc3nc4c(N5CC6CCC(C5)N6C(=O)COC(F)(F)F)cccn4n3)cn2)CC1 [Example 54, 1-(4-methylpiperazin-1-yl)-2-[4-[[8-[8-[2-(trifluoromethoxy)acetyl]-3,8-diazabicyclo[3.2.1]octan-3-yl]-[1,2,4]triazolo[1,5-a]pyridin-2-yl]amino]pyrazol-1-yl]ethanone]	1600 pM	4900 pM
CN1CCN(C(=O)Cn2cc(Nc3nc4c(N5CC6CCC(C5)N6C(=O)c5ccc(Cl)cc5)cccn4n3)cn2)CC1 [Example 89]	3100 pM	13400 pM
CN1CCN(C(=O)Cn2cc(Nc3nc4c(N5CC6CCC(C5)N6C(=O)C5CSC5)cccn4n3)cn2)CC1 [Example 3, 1-(4-methylpiperazin-1-yl)-2-[4-[[8-[8-(thietane-3-carbonyl)-3,8-diazabicyclo[3.2.1]octan-3-yl]-[1,2,4]triazolo[1,5-a]pyridin-2-yl]amino]pyrazol-1-yl]ethanone]	500 pM	600 pM
